In ChEMBL document CHEMBL1201862, “PubChem BioAssay data set” (2004):
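Compound exposure: 48 hours, 5 concentrations, 96-well plates. At the GI50, growth is halved.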 Activity calls are given as the source filed them. Cut-off read from the data, not from the text of the source: active = GI50 up to about 1.1 µM and inactive = higher.

Experiments:
Assay in all cases: inhibition of tumour cell growth, NCI panel, 48 h
[1] = tested on: U-251
[2] = tested on: A498
[3] = tested on: MDA-MB-435
[4] = tested on: OVCAR-4
[5] = tested on: OVCAR-5
[6] = tested on: DU-145
[7] = tested on: MCF7
[8] = tested on: EKVX
[9] = tested on: SK-OV-3
[10] = tested on: MDA-N
[11] = tested on: OVCAR-8
[12] = tested on: CAKI-1
[13] = tested on: KM12
[14] = tested on: NCI-H23
[15] = tested on: HL-60
[16] = tested on: ACHN
[17] = tested on: NCI-H460
[18] = tested on: A549
[19] = tested on: PC-3
[20] = tested on: TK-10
[21] = tested on: MDA-MB-231
[22] = tested on: COLO 205
[23] = tested on: T47D
[24] = tested on: 786-0
[25] = tested on: UACC-62
[26] = tested on: SK-MEL-5
[27] = tested on: SF-268
[28] = tested on: SK-MEL-2
[29] = tested on: MOLT-4
[30] = tested on: SN12C
[31] = tested on: SW-620
[32] = tested on: HOP-62
[33] = tested on: SNB-19
[34] = tested on: IGROV-1
[35] = tested on: UACC-257
[36] = tested on: SF-295
[37] = tested on: CCRF-CEM
[38] = tested on: HCT-116
[39] = tested on: SR
[40] = tested on: Hs-578T
[41] = tested on: NCI-H522
[42] = tested on: SK-MEL-28
[43] = tested on: NCI-H226
[44] = tested on: HCT-15
[45] = tested on: NCI/ADR-RES
[46] = tested on: HOP-92
[47] = tested on: SNB-75
[48] = tested on: M14
[49] = tested on: OVCAR-3
[50] = tested on: RPMI-8226
[51] = tested on: HT-29
[52] = tested on: UO-31
[53] = tested on: K562
[54] = tested on: SF-539
[55] = tested on: BT-549
[56] = tested on: Malme-3M
[57] = tested on: LOX IMVI
[58] = tested on: HCC 2998

In the case of `COCOCC1CCCN1CN1CCC[C@H]1COCOC` (stereo partly drawn), the GI50 [1] is reported as > 100 µM (inactive), the GI50 [2] is reported as > 100 µM (inactive) and the GI50 [3] is reported as > 100 µM (inactive). For the same compound, the GI50 [4] was > 100 µM (inactive), the GI50 [5] was > 100 µM (inactive) and the GI50 [6] was 42.8 µM (inactive). The GI50 [7] was 53.1 µM (inactive), the GI50 [8] was > 100 µM (inactive) and the GI50 [9] was > 100 µM (inactive). For the same compound, the GI50 [10] was > 100 µM (inactive), the GI50 [11] was > 100 µM (inactive) and the GI50 [12] was > 100 µM (inactive). The GI50 [13] was > 100 µM (inactive), the GI50 [14] was > 100 µM (inactive) and the GI50 [15] was 17.6 µM (inactive). The GI50 [16] was > 100 µM (inactive), the GI50 [17] was 60.5 µM (inactive) and the GI50 [18] was > 100 µM (inactive). The GI50 [19] was > 100 µM (inactive), the GI50 [20] was > 100 µM (inactive) and the GI50 [21] was > 100 µM (inactive). The GI50 [22] was 77.8 µM (inactive), the GI50 [23] was > 100 µM (inactive) and the GI50 [24] was 26.5 µM (inactive). The GI50 [25] was 36.6 µM (inactive), the GI50 [26] was > 100 µM (inactive) and the GI50 [27] was > 100 µM (inactive). For the same compound, the GI50 [28] was > 100 µM (inactive), the GI50 [29] was 50.4 µM (inactive) and the GI50 [30] was > 100 µM (inactive). The GI50 [31] was 33.2 µM (inactive), the GI50 [32] was > 100 µM (inactive) and the GI50 [33] was > 100 µM (inactive). The GI50 [34] was > 100 µM (inactive), the GI50 [35] was > 100 µM (inactive) and the GI50 [36] was > 100 µM (inactive). For the same compound, the GI50 [37] was 39.2 µM (inactive), the GI50 [38] was 26.9 µM (inactive) and the GI50 [39] was 49.8 µM (inactive). For the same compound, the GI50 [40] was > 100 µM (inactive), the GI50 [41] was > 100 µM (inactive) and the GI50 [42] was > 100 µM (inactive). The GI50 [43] was > 100 µM (inactive), the GI50 [44] was 38.3 µM and the GI50 [45] was > 100 µM (inactive). For the same compound, the GI50 [46] was > 100 µM (inactive), the GI50 [47] was > 100 µM (inactive) and the GI50 [48] was > 100 µM (inactive). The GI50 [49] was > 100 µM (inactive), the GI50 [50] was 33.8 µM (inactive) and the GI50 [51] was 70.6 µM (inactive). For the same compound, the GI50 [52] was > 100 µM (inactive) and the GI50 [53] was > 100 µM (inactive).

With `Cc1cn2c(/C=N/NC(=N)N)c(-c3cc([N+](=O)[O-])c(Cl)cc3Cl)nc2s1` the GI50 [4] was 1.91 µM (inactive), the GI50 [7] was 0.49 µM (active) and the GI50 [11] was 2.63 µM (inactive). The GI50 [13] was 0.455 µM (active), the GI50 [15] was 1.61 µM (inactive) and the GI50 [17] was 2.29 µM (inactive). For the same compound, the GI50 [18] was 4.06 µM (inactive), the GI50 [19] was 2.34 µM (inactive) and the GI50 [20] was 2.3 µM (inactive). The GI50 [21] was 2.4 µM (inactive), the GI50 [54] was 2.52 µM (inactive) and the GI50 [22] was 0.55 µM (active). The GI50 [55] was 2.51 µM (inactive), the GI50 [25] was 1.98 µM (inactive) and the GI50 [26] was 2.77 µM (inactive). The GI50 [28] was 2.35 µM (inactive), the GI50 [30] was 2.24 µM (inactive) and the GI50 [33] was 1.87 µM (inactive). For the same compound, the GI50 [34] was 1.8 µM (inactive), the GI50 [35] was 2.24 µM (inactive) and the GI50 [36] was 2.08 µM (inactive). For the same compound, the GI50 [41] was 1.47 µM (inactive), the GI50 [42] was 2.22 µM (inactive) and the GI50 [45] was > 100 µM (inactive). For the same compound, the GI50 [46] was 3.32 µM (inactive), the GI50 [51] was 1.13 µM (inactive) and the GI50 [52] was 1.83 µM (inactive).

In the case of `CN(C)CCCNC(=O)c1cc(NC(=O)c2cc(NC(=O)[C@@H]3C[C@H]3C(=O)Nc3cc(C(=O)Nc4cc(C(=O)NCCCN(C)C)n(C)c4)n(C)c3)cn2C)cn1C`, the GI50 [1] is reported as > 100 µM (inactive), the GI50 [3] is reported as > 100 µM (inactive) and the GI50 [4] is reported as > 100 µM (inactive). For the same compound, the GI50 [56] was > 100 µM (inactive), the GI50 [57] was > 100 µM (inactive) and the GI50 [5] was > 100 µM (inactive). The GI50 [6] was > 100 µM (inactive), the GI50 [7] was > 100 µM (inactive) and the GI50 [8] was > 100 µM (inactive). The GI50 [11] was > 100 µM (inactive), the GI50 [12] was > 100 µM (inactive) and the GI50 [13] was > 100 µM (inactive). The GI50 [14] was > 100 µM (inactive), the GI50 [15] was > 100 µM (inactive) and the GI50 [16] was > 100 µM (inactive). For the same compound, the GI50 [17] was > 100 µM (inactive), the GI50 [18] was > 100 µM (inactive) and the GI50 [19] was > 100 µM (inactive). For the same compound, the GI50 [21] was > 100 µM (inactive), the GI50 [54] was > 100 µM (inactive) and the GI50 [22] was > 100 µM (inactive). The GI50 [24] was > 100 µM (inactive), the GI50 [55] was > 100 µM (inactive) and the GI50 [26] was > 100 µM (inactive). The GI50 [27] was > 100 µM (inactive), the GI50 [28] was > 100 µM (inactive) and the GI50 [29] was > 100 µM (inactive). The GI50 [30] was > 100 µM (inactive), the GI50 [31] was > 100 µM (inactive) and the GI50 [32] was > 100 µM (inactive). The GI50 [33] was > 100 µM (inactive), the GI50 [34] was > 100 µM (inactive) and the GI50 [35] was > 100 µM (inactive). The GI50 [36] was > 100 µM (inactive), the GI50 [37] was > 100 µM (inactive) and the GI50 [38] was > 100 µM (inactive). The GI50 [39] was > 100 µM (inactive), the GI50 [41] was > 100 µM (inactive) and the GI50 [42] was > 100 µM (inactive). For the same compound, the GI50 [58] was 20.9 µM (inactive), the GI50 [43] was > 100 µM (inactive) and the GI50 [45] was > 100 µM (inactive). For the same compound, the GI50 [46] was > 100 µM (inactive), the GI50 [47] was > 100 µM (inactive) and the GI50 [48] was > 100 µM (inactive). The GI50 [50] was > 100 µM (inactive), the GI50 [51] was > 100 µM (inactive) and the GI50 [53] was > 100 µM (inactive).
